Measured values taken from patent US20260231968A1, “AN ECO-FRIENDLY, SUSTAINABLE FOOD PRESERVATIVE” (priority 2023, published 2026).

Assays:
[1] = test system: initial microbial load of plant-based meat substitute; assay: Microbial load of plant-based meat substitute during storage; format: cell-based
Procedure: The ability of psoriasin to extend the shelf life of a plant-based meat substitute was examined under standard storage conditions. Three groups, each stored as an open package at […], were assessed over the course of 16 days. The groups included i) an untreated control, ii) a nisin-treated sample, and iii) a psoriasin-treated sample at 0.65%. A single source of the plant-based meat substitute was used and each group was reproduced in triplicate. The microbial load of the plant-based meat substitute samples was based on the initial microbial load without the addition of antibiotics and without the addition of mold, yeast or bacteria. Samples from each group were taken on days 1, 3, 5, 10, 11 and 16 and total CFU count was determined by plating on LB and PDA agar petri dishes.

[2] = test system: Aspergillus flavus; assay: Microbial Growth Inhibition Test, broth microdilution optical method; format: cell-based; conditions: 12 μM
Procedure: The IC90 of psoriasin for several microorganisms was determined by Microbial Growth Inhibition Tests. The tests were performed using the Broth Microdilution Optical Method based on standardized protocols M27 (yeasts) and M38 (filamentous fungi) of the Clinical and Laboratory Standards Institute. […] MOPS, LB (Luria-Bertani), and TSB ([…]) medium types were used, depending on the species being tested. The absorbance was calibrated to each species, and was measured between 450 nm to 650 nm.
In addition, ethyl lauroyl arginate (LAE), a commercially available food preservative, was tested in similar growth conditions as a reference.

[3] = test system: C. albicans; assay: C. albicans growth in RPMI-MOPS with S100a12; format: cell-based, Candida albicans; conditions: 30° C, approximately 19 hours
Procedure: C. albicans cells in RPMI-MOPS were incubated in a 96-well plate at 30° C. with S100a12 at concentrations of 0.32, 2.5, 5 and 20 μM (FIG. 11). Optical density was measured every 10 minutes by absorbance at 600 nm over the course of approximately 19 hours.

[4] = test system: E. coli BL21 cells; assay: E. coli growth in LB with S100a8 / S100a9; format: cell-based; conditions: 37° C; for inhibition of E. coli growth: 0.18 μM to 50 μM
Procedure: E. coli cells in LB media were incubated in a 96-well plate at 37° C. with S100a8 (FIG. 10A) or S100a9 (FIG. 10B) at concentrations varying from 0.18 μM to 50 μM. Optical density was measured every 10 minutes by absorbance at 600 nm over the course of approximately 19 hours. […] In addition, the same experiment was performed using varying equimolar concentrations of S100a8 and S100a9 that were pre-incubated for two hours at 4° C. under constant shaking.

Q: With nisin [reference compound] as the molecule, how does the “Yeast & Mold Count” value ([1]; Day 1) read?
A: 2 × 10^2

Q: And the “Total CFU count” value ([1]; Day 1, open package, psoriasin 0.65%)?
A: 1.2 × 10^4 CFU

Q: And the “Total CFU count” value ([1]; Day 3)?
A: 1.2 × 10^4 CFU

Q: What about the “Yeast & Mold Count” value ([1]; Day 3) of the same molecule?
A: 2 × 10^2

Q: What about the “Total CFU count” value ([1]; Day 5) of the same molecule?
A: 5 × 10^4 CFU

Q: And the “Yeast & Mold Count” value ([1]; Day 5)?
A: 1.4 × 10^3

Q: And the “Total CFU count” value ([1]; Day 10)?
A: 1.8 × 10^8 CFU

Q: And the “Yeast & Mold Count” value ([1]; Day 10)?
A: 1.47 × 10^4

Q: And the “Total CFU count” value ([1]; Day 11)?
A: 2.35 × 10^8 CFU

Q: And the “Yeast & Mold Count” value ([1]; Day 11)?
A: 1.46 × 10^4

Q: And the “Total CFU count” value ([1]; Day 16)?
A: 1.28 × 10^10 CFU

Q: What about the “Yeast & Mold Count” value ([1]; Day 16) of the same molecule?
A: 3.2 × 10^4

Q: Which “inhibition of A. flavus growth” value [2] does the source give for CCCCCCCCCCCC(=O)N[C@@H](CCCN=C(N)N)C(=O)OCC [LAE, ethyl lauroyl arginate, reference compound] here?
A: approximately 40%

B1: S100a12: S100 protein; human S100a12 sequence SEQ ID NO: 6 (protein, listed as Homo sapiens)
chain: MTKLEEHLEGIVNIFHQYSVRKGHFDTLSKGELKQLLTKELANTIKNIKDKAVIDEIFQGLDANQDEQVDFQEFISLVAIALKAAHYHTHKE
Q: With B1 as the molecule, how does the “concentration with significant inhibition of C. albicans growth” value [3] read?
A: ≥ 0.32 µM

B2: S100a8: Recombinant S100 protein; human S100a8 sequence SEQ ID NO: 3 (protein, listed as Homo sapiens)
chain: MLTELEKALNSIIDVYHKYSLIKGNFHAVYRDDLKKLLETECPQYIRKKGADVWFKELDINTDGAVNFQEFLILVIKMGVAAHKKSHEESHKE
Q: For B2, which “inhibition of E. coli growth” value [4] is on record?
A: Inhibit Growth of E. coli BL21 Cells

Q: What about the “concentration giving full inhibition of E. coli growth” value ([4]; approximately 19 hours, OD 600 nm) of the same molecule?
A: ≤ 1.5 µM

B3: S100a9: Recombinant S100 protein; human S100a9 sequence SEQ ID NO: 4 (protein, listed as Homo sapiens)
chain: MTCKMSQLERNIETIINTFHQYSVKLGHPDTLNQGEFKELVRKDLQNFLKKENKNEKVIEHIMEDLDTNADKQLSFEEFIMLMARLTWASHEKMHEGDEGPGHHHKPGLGEGTP
Q: Which “inhibition of E. coli growth” value [4] does the source give for B3 here?
A: Inhibit Growth of E. coli BL21 Cells
